Measured values as given in patent publication US9035057B2, “Dihydroethidine analogues and uses thereof” (Washington University, priority 2009, dated 2015).

What was measured:
[1] = Plate reader oxidation of compound C1 with H202 and horseradish peroxidase; format: biochemical; settings: H202 1 mM, HRP 0.2 U/ml
Protocol: (§1) This example illustrates oxidation rates of Compound C1 under various conditions. In these experiments, fluorescence intensity of Compound C1 was evaluated in a plate reader assay, and the fluorescence intensity over time of the oxidation rate of compound C1 was evaluated. […] Excitation was done at 480 nm and emission filtering was >590 nm. The following reaction conditions were used: [table]

[2] = Plate reader oxidation of compound C1 with peroxide; format: biochemical; settings: H202 1 mM
Protocol: as §1

[3] = In vivo oxidation in brains of ketamine-pretreated mice, confocal microscopy; settings: for detection of superoxide produced by ketamine treatment (fluorescence of oxidized form in mouse brain): ketamine pretreatment
Protocol: In these experiments, mice were pretreated for several days with subanesthetic doses of ketamine, which produces a large increase in neuronal superoxide generation (Behrens et al, 2007). The mice were injected with 27 mg/kg of compound C1 and sacrificed 16 hours later. Brains were sliced and imaged by confocal microscopy. The images of the brains sliced 16 hours after administration of compound C1 are depicted in FIG. 4. […] The quantitative measures of fluorescence of the oxidized forms of DHE and compound C1 in mouse brain are depicted in FIG. 5. When compound C1 was administered to transgenic mice overexpressing SOD, the increased fluorescence from the ketamine pretreatment was abolished, consistent with the SOD removal of superoxide (FIG. 5).

[4] = Comparative oxidation of C1 and DHE in the presence of oxidizers, single wavelength fluorescence platereader study; format: biochemical; settings: elevations with superoxide but not with peroxide (H202), hydroxyl radical (HO—) or peroxynitrate (ONOO—); FIG. 2
Protocol: This example illustrates comparative oxidation of C1 and DHE. In these experiments, fluorescence of C1 or DHE were determined in the presence of oxidizers. […] In this single wavelength fluorescence platereader study, it should be noted that the ratio of fluorescence increase in a study cannot be compared between DHE and compound C1 since their non-oxidized forms have fluorescence and the light spectra overlap to a variable degree with the oxidized forms.

[5] = Plate reader oxidation rate of compound C1, superoxide production with hypoxanthine and xanthine oxidase (XO system); format: biochemical
Protocol: as §1

[6] = Selective reactivity with superoxide generated by xanthine oxidase/hypoxanthine, absence or presence of SOD; format: biochemical; settings: for oxidation by superoxide / effect of SOD on oxidation by superoxide: xanthine oxidase/hypoxanthine; for oxidation by superoxide: absence of SOD, DHE concentration double that of the WC compounds; for effect of SOD on oxidation by superoxide: presence of SOD; for specificity for superoxide: FIG. 3, change in fluorescent units from baseline; for specificity for superoxide, comparison among compounds: levels of hydroxyl radical very supraphysiological
Protocol: (§2) This example illustrates a comparison of compounds for selective reactivity with superoxide radical. In these experiments, compounds WC-63, WC-77 and WC-81 were exposed to superoxide generated by xanthine oxidase/hypoxanthine in the absence or presence SOD, and were evaluated similarly as compound C1 in Example 10. The concentration of DHE for all experiments was double that of compounds WC-63, WC-77 and WC-81. […] All of the compounds were also exposed to H202 in the presence of horseradish peroxidase (HRP) to generate hydroxyl radical.

[7] = Tissue uptake of the tracers, fluorescence lifetime imaging; format: in vivo, mice; settings: FIG. 8
Text: This example illustrates tissue uptake of the tracers. In these experiments, tracer lifetimes in mice were studied by fluorescence imaging of DHE and compounds WC-63, WC-77 and WC-81.

[8] = Exposure to H202 alone, fluorescence; format: biochemical
Protocol: as §2

[9] = Exposure to H202 in the presence of horseradish peroxidase (HRP), fluorescence; format: biochemical; settings: H202 with HRP, supraphysiologic levels
Protocol: as §2

[10] = Kinetics of compound WC-81 in brain in vivo, eXplore Optix-MX2 fluorescence scanner; set-up: species or system mouse
Protocol: In these experiments, an anesthetized mouse was placed in an eXplore Optix™-MX2 scanner, and an initial scan was completed for background fluorescence (T=0). A single intraperitoneal injection of 50 mg/kg of compound WC-81 in 50% DMSO, 50% saline was performed, and the animal was rescanned at 10 minutes. It took approximately 5 minutes to complete the scan. The mouse was removed, allowed to recover, then re-anesthetized and rescanned at 1 hour. A similar recovery and rescan was performed at 2 hours. The mouse was pretreated with subanesthetic doses of ketamine to raise superoxide levels. Cortical (left and right) and cerebellar activity are depicted in FIG. 6.

[11] = Fluorescence from oxidation of compound WC-81 in mouse brain images; format: in vivo, mice; settings: FIG. 7
Protocol: This example illustrates fluorescence from oxidation of Compound WC-81. In these experiments, compound WC-81 was administered to mice, and images of mouse brains were then obtained (FIG. 7).

SMILES	oxidation by superoxide [6]	effect of SOD on oxidation by superoxide [6]	oxidation in the presence of hydroxyl radical [9]	specificity for superoxide [6]	specificity for superoxide, comparison among compounds [6]	detection of superoxide produced by ketamine treatment (fluorescence of oxidized form in mouse brain) ([3]; FIG. 5)	tissue presence of tracer [7]	oxidation with H202 [8]	other results
CN1c2cc(N)ccc2-c2ccc(N)cc2C1c1ccccc1 (stereo not drawn) [C1]						detected a large increase			oxidation with H202 with horseradish peroxidase [1]: no oxidation; oxidation with peroxide [2]: no oxidation; pattern of brain fluorescence ([3]; ketamine pretreated mice, 27 mg/kg, sacrificed 16 hours later, FIG. 4): consistent with the presence of intracellular oxidized compound C1; increased fluorescence from ketamine pretreatment in transgenic mice overexpressing SOD ([3]; transgenic mice overexpressing SOD, FIG. 5): abolished; selective oxidation (fluorescence) in the presence of oxidizers [4]: selective oxidation similar to DHE; effect of superoxide dismutase (SOD) on oxidation ([5]; XO system plus SOD 575 U/ml): completely removed; effect of catalase on oxidation ([5]; XO system plus catalase 60 U/ml): did not effect; rate of conversion by oxidation compared with DHE ([5]; data not shown): slightly faster than DHE; oxidation under superoxide production ([5]; hypoxanthine and xanthine oxidase (XO system)): oxidized rapidly; reactivity and selectivity for superoxide (fluorescence intensity over time) ([5]; plate reader, excitation 480 nm, emission >590 nm, FIG. 1): both reactivity and selectivity for superoxide
CCN1c2cc(N)ccc2-c2ccc(N)cc2C1c1ccccc1 (stereo not drawn) [DHE, 2,7-diamino-10-ethyl-9-phenyl-9,10-dihydrophenanthradine, reference compound]	oxidized by superoxide	fully blocked oxidation				detected a large increase	present in the brain and organs in the chest		

The next lines start with results.

oxidation by superoxide [6]	effect of SOD on oxidation by superoxide [6]	oxidation in the presence of hydroxyl radical [9]	specificity for superoxide [6]	specificity for superoxide, comparison among compounds [6]	SMILES	detection of superoxide produced by ketamine treatment (fluorescence of oxidized form in mouse brain) ([3]; FIG. 5)	tissue presence of tracer [7]	oxidation with H202 [8]	other results
oxidized by superoxide	fully blocked oxidation	generally no evidence of oxidation	high specificity for superoxide		COc1ccc(C2c3cc(N)ccc3-c3ccc(N)cc3N2C)cc1 (stereo not drawn) [WC-63]		present in the brain and organs in the chest	generally no evidence of oxidation	
oxidized by superoxide	fully blocked oxidation	generally no evidence of oxidation	high specificity for superoxide	most specific compound for superoxide	CN1c2cc(N)ccc2-c2ccc(N)cc2C1c1ccc(OCc2cn(CCF)nn2)cc1 (stereo not drawn) [WC-77]			generally no evidence of oxidation	
oxidized by superoxide	fully blocked oxidation	partial oxidation	high specificity for superoxide	highly selective for superoxide	CN1c2cc(N)ccc2-c2ccc(N)cc2C1c1ccc(OCCF)cc1 (stereo not drawn) [WC-81]		present in the brain and organs in the chest	generally no evidence of oxidation	brain fluorescence levels at 120 minutes ([10]; 50 mg/kg intraperitoneal, 120 minutes): fall in levels; time by which plateau of brain fluorescence was reached ([10]; 50 mg/kg intraperitoneal, cortical and cerebellar activity): ≤ 60 min; brain penetration ([10]; single intraperitoneal injection 50 mg/kg in 50% DMSO, 50% saline, ketamine pretreated mouse, FIG. 6): penetrated the brain; stability of the product, comparison among compounds [6]: most stable and intact product; localization of fluorescence from oxidation in brain [11]: localized to cerebral microvessels and to the extracellular space around certain cortical or hippocampal neurons
